# Measured values as given in US20170050957A1, “4-AMINO-6-(HETEROCYCLIC)PICOLINATES AND 6-AMINO-2-(HETEROCYCLIC)PYRIMIDINE-4-CARBOXYLATES AND THEIR USE AS HERBICIDES” (Dow AgroSciences LLC, priority 2013, published 2017).
# Read-outs that look alike come from different tables or passages of the source.
# Columns and labels:
# [1] = system: Key Grass and Sedge Weeds as well as Grass Crops; assay: Post-emergent Test II herbicidal activity (Table 16); assay type: in vivo; details: post-emergence, 336 h, 14 d; for pest or weed control at 35 g/ha: 35 g ai/ha; for pest or weed control at 70 g/ha: 70 g ai/ha; for pest or weed control at 140 g/ha: 140 g ai/ha
# Summary of the method: (§1)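 Visual injury rating (0 = none, 100 = complete kill) taken 14 d after treatment, relative to untreated plants. Compounds in acetone/DMSO with crop oil concentrate and Triton X-155 were track-sprayed at 187 L/ha onto seedlings at the first-second true leaf stage.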
# [2] = system: Key Broadleaf Weed and Crop Species; assay: Post-emergent Test II herbicidal activity (Table 15); assay type: in vivo; details: post-emergence, 336 h, 14 d; for pest or weed control at 35 g/ha: 35 g ai/ha; for pest or weed control at 70 g/ha: 70 g ai/ha; for pest or weed control at 140 g/ha: 140 g ai/ha
# Summary of the method: as §1
# [3] = Cyperus esculentus, yellow nutsedge (Cyperus esculentus), read-out: Visual Growth Reduction (%) 14 Days After Application, CYPES
# [4] = Echinochloa crus-galli, barnyardgrass (Echinochloa crus-galli), read-out: Visual Growth Reduction (%) 14 Days After Application, ECHCG
# [5] = Oryza sativa, rice (Oryza sativa), read-out: Visual Growth Reduction (%) 14 Days After Application, ORYSA
# [6] = Setaria faberi, giant foxtail (Setaria faberi), read-out: Visual Growth Reduction (%) 14 Days After Application, SETFA
# [7] = Triticum aestivum, wheat, spring (Triticum aestivum), read-out: Visual Growth Reduction (%) 14 Days After Application, TRZAS
# [8] = Zea mays, maize, corn (Zea mays), read-out: Visual Growth Reduction (%) 14 Days After Application, ZEAMX
# [9] = Abutilon theophrasti, velvetleaf (Abutilon theophrasti), read-out: Visual Growth Reduction (%) 14 Days After Application, ABUTH
# [10] = Amaranthus retroflexus, redroot pigweed (Amaranthus retroflexus), read-out: Visual Growth Reduction (%) 14 Days After Application, AMARE
# [11] = Brassica napus, oilseed rape, canola (Brassica napus), read-out: Visual Growth Reduction (%) 14 Days After Application, BRSNN
# [12] = Chenopodium album, lambsquarters (Chenopodium album), read-out: Visual Growth Reduction (%) 14 Days After Application, CHEAL
# [13] = Euphorbia heterophylla, wild poinsettia (Euphorbia heterophylla), read-out: Visual Growth Reduction (%) 14 Days After Application, EPHHL
# [14] = Helianthus annuus, sunflower (Helianthus annuus), read-out: Visual Growth Reduction (%) 14 Days After Application, HELAN
Compound,"pest or weed control at 35 g/ha [1, 3] [%]","pest or weed control at 70 g/ha [1, 3] [%]","pest or weed control at 140 g/ha [1, 3] [%]","pest or weed control at 35 g/ha [1, 4] [%]","pest or weed control at 70 g/ha [1, 4] [%]","pest or weed control at 140 g/ha [1, 4] [%]","pest or weed control at 35 g/ha [1, 5] [%]","pest or weed control at 70 g/ha [1, 5] [%]","pest or weed control at 140 g/ha [1, 5] [%]","pest or weed control at 35 g/ha [1, 6] [%]","pest or weed control at 70 g/ha [1, 6] [%]","pest or weed control at 140 g/ha [1, 6] [%]","pest or weed control at 35 g/ha [1, 7] [%]","pest or weed control at 70 g/ha [1, 7] [%]","pest or weed control at 140 g/ha [1, 7] [%]","pest or weed control at 35 g/ha [1, 8] [%]","pest or weed control at 70 g/ha [1, 8] [%]","pest or weed control at 140 g/ha [1, 8] [%]","pest or weed control at 35 g/ha [2, 9] [%]","pest or weed control at 70 g/ha [2, 9] [%]",other results
COC(=O)c1nc(-c2cc3[nH]ccc3cc2F)cc(N)c1Cl [Compound 1.25],0 to 29,0 to 29,0 to 29,0 to 29,0 to 29,0 to 29,0 to 29,0 to 29,0 to 29,0 to 29,0 to 29,0 to 29,0 to 29,0 to 29,0 to 29,0 to 29,0 to 29,0 to 29,0 to 29,0 to 29,"pest or weed control at 140 g/ha [2, 9]: 30 to 44%; pest or weed control at 35 g/ha [2, 10]: 75 to 84%; pest or weed control at 70 g/ha [2, 10]: 85 to 94%; pest or weed control at 140 g/ha [2, 10]: 95 to 100%; pest or weed control at 35 g/ha [2, 11]: 60 to 74%; pest or weed control at 70 g/ha [2, 11]: 75 to 84%; pest or weed control at 140 g/ha [2, 11]: 85 to 94%; pest or weed control at 35 g/ha [2, 12]: 0 to 29%; pest or weed control at 70 g/ha [2, 12]: 60 to 74%; pest or weed control at 140 g/ha [2, 12]: 60 to 74%; pest or weed control at 35 g/ha [2, 13]: 0 to 29%; pest or weed control at 70 g/ha [2, 13]: 0 to 29%; pest or weed control at 140 g/ha [2, 13]: 30 to 44%; pest or weed control at 35 g/ha [2, 14]: 0 to 29%; pest or weed control at 70 g/ha [2, 14]: 0 to 29%; pest or weed control at 140 g/ha [2, 14]: 0 to 29%"
Nc1cc(-c2cc3[nH]ccc3cc2F)nc(C(=O)O)c1Cl [Compound 1.26],0 to 29,0 to 29,0 to 29,0 to 29,0 to 29,0 to 29,0 to 29,0 to 29,0 to 29,0 to 29,0 to 29,0 to 29,0 to 29,0 to 29,0 to 29,0 to 29,0 to 29,0 to 29,0 to 29,0 to 29,"pest or weed control at 140 g/ha [2, 9]: 0 to 29%; pest or weed control at 35 g/ha [2, 10]: 75 to 84%; pest or weed control at 70 g/ha [2, 10]: 85 to 94%; pest or weed control at 140 g/ha [2, 10]: 95 to 100%; pest or weed control at 35 g/ha [2, 11]: 85 to 94%; pest or weed control at 70 g/ha [2, 11]: 95 to 100%; pest or weed control at 140 g/ha [2, 11]: 95 to 100%; pest or weed control at 35 g/ha [2, 12]: 0 to 29%; pest or weed control at 70 g/ha [2, 12]: 30 to 44%; pest or weed control at 140 g/ha [2, 12]: 30 to 44%; pest or weed control at 35 g/ha [2, 13]: 0 to 29%; pest or weed control at 70 g/ha [2, 13]: 30 to 44%; pest or weed control at 140 g/ha [2, 13]: 45 to 59%; pest or weed control at 35 g/ha [2, 14]: 0 to 29%; pest or weed control at 70 g/ha [2, 14]: 0 to 29%; pest or weed control at 140 g/ha [2, 14]: 0 to 29%"
"COC(=O)c1nc(-c2ccc3cc[nH]c3c2F)cc(N)c1Cl [Compound 1.23, Methyl 4-amino-3-chloro-6-(7-fluoro-1H-indol-6-yl)picolinate]",0 to 29,0 to 29,0 to 29,0 to 29,0 to 29,60 to 74,0 to 29,0 to 29,0 to 29,0 to 29,0 to 29,60 to 74,0 to 29,0 to 29,30 to 44,0 to 29,0 to 29,0 to 29,95 to 100,95 to 100,"pest or weed control at 140 g/ha [2, 9]: 95 to 100%; pest or weed control at 35 g/ha [2, 10]: 95 to 100%; pest or weed control at 70 g/ha [2, 10]: 95 to 100%; pest or weed control at 140 g/ha [2, 10]: 95 to 100%; pest or weed control at 35 g/ha [2, 11]: 60 to 74%; pest or weed control at 70 g/ha [2, 11]: 75 to 84%; pest or weed control at 140 g/ha [2, 11]: 85 to 94%; pest or weed control at 35 g/ha [2, 12]: 95 to 100%; pest or weed control at 70 g/ha [2, 12]: 95 to 100%; pest or weed control at 140 g/ha [2, 12]: 95 to 100%; pest or weed control at 35 g/ha [2, 13]: 95 to 100%; pest or weed control at 70 g/ha [2, 13]: 95 to 100%; pest or weed control at 140 g/ha [2, 13]: 95 to 100%; pest or weed control at 35 g/ha [2, 14]: 60 to 74%; pest or weed control at 70 g/ha [2, 14]: 75 to 84%; pest or weed control at 140 g/ha [2, 14]: 85 to 94%"
